From US20230391760A1, “HETEROCYCLIC GLP-1 AGONISTS” (Gasherbrum Bio, Inc., priority 2020, published 2023)

What follows are compounds tested against GLP-1 Receptor (Homo sapiens, UniProt P43220) (assay: GLP-1R agonist cAMP stimulation assay (HEK293/GLP1R/CRE-LUC cells, cAMP dynamic 2 Kit)). Details: HEK293/CRE-Luc cell line stably expressing the GLP-1 Receptor, 30 min at 37° C.
Format: cell-based
Outline: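 cAMP measured by HTRF competition (d2-labelled cAMP with cryptate antibody, 1 h, room temperature, protected from light). Before that, GLP1R/CRE-Luc HEK293 cells (1000/well) were exposed for 30 min at 37 °C to half-log compound dilutions in DPBS containing IBMX 0.5 mM and BSA 0.1%.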

Sequence of GLP-1 Receptor (P43220 24-463, species assumed): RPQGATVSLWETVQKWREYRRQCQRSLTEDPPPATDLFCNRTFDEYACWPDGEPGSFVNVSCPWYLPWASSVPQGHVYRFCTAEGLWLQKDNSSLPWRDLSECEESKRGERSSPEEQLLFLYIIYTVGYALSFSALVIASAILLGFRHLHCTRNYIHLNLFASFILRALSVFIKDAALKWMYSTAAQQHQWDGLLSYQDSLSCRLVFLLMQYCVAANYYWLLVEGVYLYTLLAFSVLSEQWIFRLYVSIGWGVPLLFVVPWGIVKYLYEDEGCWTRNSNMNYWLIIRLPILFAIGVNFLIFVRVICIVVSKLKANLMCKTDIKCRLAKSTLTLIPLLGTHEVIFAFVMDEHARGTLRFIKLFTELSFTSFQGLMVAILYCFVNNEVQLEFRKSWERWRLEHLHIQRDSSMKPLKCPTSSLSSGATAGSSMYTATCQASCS

Q: How did the EC50 turn out when `CC1(c2ccc(C#N)cc2F)Oc2cccc(C3CCN(Cc4nc5cc(-c6nnc(C(F)(F)F)[nH]6)ccc5n4C[C@@H]4CCO4)CC3)c2O1` (stereo partly drawn) [Compound 261a, 3-fluoro-4-(2-methyl-4-{1-[(1-{[(2S)-oxetan-2-yl]methyl}-5-[5-(trifluoromethyl)-4H-1,2,4-triazol-3-yl]-1H-1,3-benzodiazol-2-yl)methyl]piperidin-4-yl}-2H-1,3-benzodioxol-2-yl)benzonitrile] was run?
A: 0.018 nM

Q: With `C[C@H]1CN(c2ncc(F)c(OCc3ccc(Cl)cc3F)n2)CCN1Cc1nc2cc(-c3nnc(C(F)(F)F)[nH]3)ncc2n1C[C@@H]1CCO1` [Compound 489a, 4-[(4-chloro-2-fluorophenyl)methoxy]-5-fluoro-2-[(3S)-3-methyl-4-[(3-{[(2S)-oxetan-2-yl]methyl}-6-[5-(trifluoromethyl)-4H-1,2,4-triazol-3-yl]-3H-imidazo[4,5-c]pyridin-2-yl)methyl]piperazin-1-yl]pyrimidine] as the compound, how does the EC50 read?
A: 0.087 nM

Q: For `Fc1cc(Cl)ccc1C1COc2cccc(C3CCN(Cc4nc5cc(-c6nnc(C(F)(F)F)[nH]6)nnc5n4C[C@@H]4CCO4)CC3)c2O1` (stereo partly drawn) [Compound 465a, 4-[3-(4-chloro-2-fluorophenyl)-2,3-dihydro-1,4-benzodioxin-5-yl]-1-[(7-{[(2S)-oxetan-2-yl]methyl}-3-[5-(trifluoromethyl)-4H-1,2,4-triazol-3-yl]-7H-imidazo[4,5-c]pyridazin-6-yl)methyl]piperidine], which EC50 is on record?
A: 0.3 nM

Q: With “4-[2-(4-chloro-2-fluorophenyl)-2-methyl-2H-1,3-benzodioxol-4-yl]-1-[(3-{[(2S)-oxolan-2-yl]methyl}-6-[5-(trifluoromethyl)-4H-1,2,4-triazol-3-yl]-3H-imidazo[4,5-b]pyridin-2-yl)methyl]piperidine [Compound 247a]” as the compound, how does the EC50 read?
A: 3.4 nM

Q: For `Cc1ccc(C(=O)Nc2ccc3c(c2)nc(CN2CCC(c4cccc(OCc5ccc(Cl)cc5F)n4)CC2)n3C[C@@H]2CCO2)cn1` [Compound 173a, N-{2-[(4-{6-[(4-chloro-2-fluorophenyl)methoxy]pyridin-2-yl}piperidin-1-yl)methyl]-1-{[(2S)-oxetan-2-yl]methyl}-1H-1,3-benzodiazol-5-yl}-6-methylpyridine-3-carboxamide], which EC50 is on record?
A: 0.26 nM

Q: How did the EC50 turn out when `Cc1nnc(-c2cc3nc(CN4CCC(c5cccc6c5O[C@@](C)(c5ccc(Cl)cn5)O6)CC4)n(C[C@@H]4CCO4)c3nn2)[nH]1` [Compound 477a, 5-chloro-2-[(2S)-2-methyl-4-(1-{[3-(5-methyl-4H-1,2,4-triazol-3-yl)-7-{[(2S)-oxetan-2-yl]methyl}-7H-imidazo[4,5-c]pyridazin-6-yl]methyl}piperidin-4-yl)-2H-1,3-benzodioxol-2-yl]pyridine] was run?
A: 0.98 nM

Q: For `CC1(c2ccc(Cl)cc2F)Oc2cccc(C3CCN(Cc4nc5cc(-c6nc(Br)ns6)ccc5n4C[C@@H]4CCO4)CC3)c2O1` (stereo partly drawn) [Compound 409a, 5-(3-bromo-1,2,4-thiadiazol-5-yl)-2-({4-[2-(4-chloro-2-fluorophenyl)-2-methyl-2H-1,3-benzodioxol-4-yl]piperidin-1-yl}methyl)-1-{[(2S)-oxetan-2-yl]methyl}-1H-1,3-benzodiazole], which EC50 is on record?
A: 6.5 nM

Q: For `O=C(Nc1ccc2c(c1)nc(CN1CCC(c3cccc(OCc4ccc(Cl)cc4F)n3)CC1)n2C[C@@H]1CCO1)C(F)n1cccn1` (stereo partly drawn) [Compound 194a, N-{2-[(4-{6-[(4-chloro-2-fluorophenyl)methoxy]pyridin-2-yl}piperidin-1-yl)methyl]-1-{[(2S)-oxetan-2-yl]methyl}-1H-1,3-benzodiazol-5-yl}-2-fluoro-2-(1H-pyrazol-1-yl)acetamide], which EC50 is on record?
A: 0.47 nM

Q: `O=C(O)Cc1ccc2c(c1)nc(CN1CC=C(c3cccc(OCc4ccc(Cl)cc4F)n3)CC1)n2C[C@@H]1CCO1` [Compound 112a, (S)-2-(2-((6-((4-chloro-2-fluorobenzyl)oxy)-3′,6′-dihydro-[2,4′-bipyridin]-1′(2′H)-yl)methyl)-1-(oxetan-2-ylmethyl)-1H-benzo[d]imidazol-5-yl)acetic acid] was tested. Which EC50 did it give?
A: 6.35 nM

Q: `C[C@H]1CN(c2nc(OCc3ccc(Cl)cc3F)ccc2F)CCN1Cc1nc2cc(-c3nnc(C(F)(F)F)[nH]3)ncc2n1C[C@@H]1CCO1` [Compound 525a, (2S)-4-{6-[(4-chloro-2-fluorophenyl)methoxy]-3-fluoropyridin-2-yl}-2-methyl-1-[(3-{[(2S)-oxetan-2-yl]methyl}-6-[5-(trifluoromethyl)-4H-1,2,4-triazol-3-yl]-3H-imidazo[4,5-c]pyridin-2-yl)methyl]piperazine] was tested. Which EC50 did it give?
A: 0.026 nM

Q: Which EC50 does the source give for `CO[C@H](C)Cn1c(CN2CCC(c3cccc4c3O[C@@](C)(c3ccc(Cl)cc3F)O4)CC2)nc2cc(-c3noc(=O)[nH]3)cnc21` [Compound 397a, 3-[2-({4-[(2S)-2-(4-chloro-2-fluorophenyl)-2-methyl-2H-1,3-benzodioxol-4-yl]piperidin-1-yl}methyl)-3-[(2R)-2-methoxypropyl]-3H-imidazo[4,5-b]pyridin-6-yl]-4,5-dihydro-1,2,4-oxadiazol-5-one] here?
A: 1.3 nM

Q: For `N#Cc1ccc(COc2nc(C3CCN(Cc4nc5cc(-c6nnc(C(F)(F)F)[nH]6)ncc5n4C[C@@H]4CCO4)CC3)ccc2F)c(F)c1` [Compound 485a, 3-fluoro-4-{[(3-fluoro-6-{1-[(3-{[(2S)-oxetan-2-yl]methyl}-6-[5-(trifluoromethyl)-4H-1,2,4-triazol-3-yl]-3H-imidazo[4,5-c]pyridin-2-yl)methyl]piperidin-4-yl}pyridin-2-yl)oxy]methyl}benzonitrile], which EC50 is on record?
A: 0.0096 nM

Q: `CO[C@@H](C)Cn1c(CN2CCC(c3cccc4c3O[C@@](C)(c3ccc(Cl)cc3F)O4)CC2)nc2cc(-c3noc(=O)[nH]3)ncc21` [Compound 421a, 3-[2-({4-[(2S)-2-(4-chloro-2-fluorophenyl)-2-methyl-2H-1,3-benzodioxol-4-yl]piperidin-1-yl}methyl)-3-[(2S)-2-methoxypropyl]-3H-imidazo[4,5-c]pyridin-6-yl]-4,5-dihydro-1,2,4-oxadiazol-5-one] was tested. Which EC50 did it give?
A: 0.34 nM

Q: Which EC50 does the source give for `N#Cc1ccc(COc2nc(C3CCN(Cc4nc5cc(-c6nnc(C(F)(F)F)[nH]6)ncc5n4C[C@@H]4CCO4)CC3)ncc2F)c(F)c1` [Compound 509a, 3-fluoro-4-{[(5-fluoro-2-{1-[(3-{[(2S)-oxetan-2-yl]methyl}-6-[5-(trifluoromethyl)-4H-1,2,4-triazol-3-yl]-3H-imidazo[4,5-c]pyridin-2-yl)methyl]piperidin-4-yl}pyrimidin-4-yl)oxy]methyl}benzonitrile] here?
A: 0.074 nM

Q: For `C[C@]1(c2ccc(Cl)cc2F)Oc2cccc(C3CCN(Cc4nc5cc(-c6nnc(C7CC7)[nH]6)ccc5n4C[C@@H]4CCO4)CC3)c2O1` [Compound 283a, 2-({4-[(2S)-2-(4-chloro-2-fluorophenyl)-2-methyl-2H-1,3-benzodioxol-4-yl]piperidin-1-yl}methyl)-5-(5-cyclopropyl-4H-1,2,4-triazol-3-yl)-1-{[(2S)-oxetan-2-yl]methyl}-1H-1,3-benzodiazole], which EC50 is on record?
A: 0.1 nM

Q: For `Fc1cc(Cl)ccc1COc1nc(N2CCN(Cc3nc4cc(-c5nnc(C(F)(F)F)[nH]5)cnc4n3C[C@@H]3CCO3)CC2)ccc1F` [Compound 516a, 1-{6-[(4-chloro-2-fluorophenyl)methoxy]-5-fluoropyridin-2-yl}-4-[(3-{[(2S)-oxetan-2-yl]methyl}-6-[5-(trifluoromethyl)-4H-1,2,4-triazol-3-yl]-3H-imidazo[4,5-b]pyridin-2-yl)methyl]piperazine], which EC50 is on record?
A: 0.018 nM

Q: `Cc1cnc(C(=O)Nc2ccc3c(c2)nc(CN2CCC(c4cccc(OCc5ccc(Cl)cc5F)n4)CC2)n3C[C@@H]2CCO2)c(C)c1` [Compound 184a, N-{2-[(4-{6-[(4-chloro-2-fluorophenyl)methoxy]pyridin-2-yl}piperidin-1-yl)methyl]-1-{[(2S)-oxetan-2-yl]methyl}-1H-1,3-benzodiazol-5-yl}-3,5-dimethylpyridine-2-carboxamide] was tested. Which EC50 did it give?
A: 2 nM

Q: `N#Cc1ccc(COc2cccc(C3CCN(Cc4nc5cc(-c6nnc(C(F)(F)F)[nH]6)ncc5n4C[C@@H]4CCO4)CC3)n2)c(F)c1` [Compound 313a, 3-fluoro-4-{[(6-{1-[(3-{[(2S)-oxetan-2-yl]methyl}-6-[5-(trifluoromethyl)-4H-1,2,4-triazol-3-yl]-3H-imidazo[4,5-c]pyridin-2-yl)methyl]piperidin-4-yl}pyridin-2-yl)oxy]methyl}benzonitrile] was tested. Which EC50 did it give?
A: 0.012 nM

Q: For `C[C@]1(c2ccc(Cl)cn2)Oc2cccc(C3CCN(Cc4nc5cc(-c6nnc(C#N)[nH]6)nnc5n4C[C@@H]4CCO4)CC3)c2O1` [Compound 482a, 5-[6-({4-[(2S)-2-(5-chloropyridin-2-yl)-2-methyl-2H-1,3-benzodioxol-4-yl]piperidin-1-yl}methyl)-7-{[(2S)-oxetan-2-yl]methyl}-7H-imidazo[4,5-c]pyridazin-3-yl]-4H-1,2,4-triazole-3-carbonitrile], which EC50 is on record?
A: 0.032 nM

Q: With `Fc1cc(Cl)ccc1COc1cccc(C2CCN(Cc3nc4cc(-c5nnc(C(F)(F)F)[nH]5)ncc4n3C[C@@H]3CCO3)CC2)n1` [Compound 435a, 2-[(4-chloro-2-fluorophenyl)methoxy]-6-{1-[(3-{[(2S)-oxetan-2-yl]methyl}-6-[5-(trifluoromethyl)-4H-1,2,4-triazol-3-yl]-3H-imidazo[4,5-c]pyridin-2-yl)methyl]piperidin-4-yl}pyridine] as the compound, how does the EC50 read?
A: 0.018 nM

Q: For `Fc1cc(Cl)ccc1COc1cccc(C2CCN(Cc3nc4cc(-c5nnc(C(F)(F)F)[nH]5)nnc4n3C[C@@H]3CCO3)CC2)n1` [Compound 486a, 2-[(4-chloro-2-fluorophenyl)methoxy]-6-{1-[(7-{[(2S)-oxetan-2-yl]methyl}-3-[5-(trifluoromethyl)-4H-1,2,4-triazol-3-yl]-7H-imidazo[4,5-c]pyridazin-6-yl)methyl]piperidin-4-yl}pyridine], which EC50 is on record?
A: 0.038 nM

Q: For `CC1(c2ccc(Cl)cc2F)Oc2cccc(C3CCN(Cc4nc5cc(-c6nnn[nH]6)c(F)cc5n4C[C@@H]4CCO4)CC3)c2O1` (stereo partly drawn) [Compound 223a, 2-({4-[2-(4-chloro-2-fluorophenyl)-2-methyl-2H-1,3-benzodioxol-4-yl]piperidin-1-yl}methyl)-6-fluoro-1-{[(2S)-oxetan-2-yl]methyl}-5-(1H-1,2,3,4-tetrazol-5-yl)-1H-1,3-benzodiazole], which EC50 is on record?
A: 0.12 nM
